The text below walks through data of ChEMBL document CHEMBL4699601, “5-Phenyl-1,3,4-oxadiazol-2(3H)-ones Are Potent Inhibitors of Notum Carboxylesterase Activity Identified by the Optimization of a Crystallographic Fragment Screening Hit” (J Med Chem, 2020).

Series [1] in a line: in vitro. Particulars: dog, MDCK-MDR1.
The nature of series [2]: physchem. Particulars: buffer.
Series [3] can be described thus: in vitro. Particulars: dog, MDCK-MDR1. The source holds these as a separate data set.
Series [4] in a line: AUC (0 to t) in C57BL6 mouse plasma at 10 mg/kg, po measured up to 24 hrs. The format is ADME, organism-based. Also on record: route oral, dose 10 mg/kg, time <=24.
Series [5] can be described thus: Cmax in C57BL6 mouse brain at 10 mg/kg, po measured up to 24 hrs. It is filed as ADME, organism-based. Details: route oral, dose 10 mg/kg, time <=24.
The nature of series [6]: Half life in C57BL6 mouse brain at 10 mg/kg, po measured up to 24 hrs. The format is ADME, organism-based.
Series [7] can be described thus: Half life in C57BL6 mouse plasma at 10 mg/kg, po measured up to 24 hrs. It is filed as ADME, organism-based.
Series [8] can be described thus: AUC (0 to t) in C57BL6 mouse brain at 10 mg/kg, po measured up to 24 hrs. It is filed as ADME, organism-based. Particulars: in vivo.
Series [9] in a line: AUC (0 to infinity) in C57BL6 mouse brain at 10 mg/kg, po measured up to 24 hrs. The format is ADME, organism-based. Also on record: route oral, dose 10 mg/kg, time <=24. Particulars: in vivo.
Series [10] can be described thus: physchem. Particulars: buffer, pH 7.4.
Series [11] in a line: Tmax in C57BL6 mouse brain at 10 mg/kg, po measured up to 24 hrs. It is filed as ADME, organism-based.
Series [12] is described as follows: Tmax in C57BL6 mouse plasma at 10 mg/kg, po measured up to 24 hrs. The format is ADME, organism-based.
Series [13] in a line: Unbound brain-to-plasma concentration ratio in C57BL6 mouse plasma at 10 mg/kg, po measured up to 24 hrs. The format is ADME, organism-based. Particulars: brain and plasma, read-out: K(p,uu,brain).
Series [14] is described as follows: AUC (0 to infinity) in C57BL6 mouse plasma at 10 mg/kg, po measured up to 24 hrs. Details: route oral, dose 10 mg/kg, time <=24. It is filed as ADME, organism-based.
A short description of series [15]: Cmax in C57BL6 mouse plasma at 10 mg/kg, po measured up to 24 hrs. Also on record: route oral, dose 10 mg/kg, time <=24. The format is ADME, organism-based.

In brackets after ≈: the same amount, converted by molar mass.

What is called Papp A→B is how fast a substance crosses the layer from the apical side. A higher Papp A→B goes with ready permeation. One may read the solubility as the concentration that dissolves in the medium under given conditions. The Papp B→A is how fast a substance crosses the layer from the basolateral side. `Oc1nnc(-c2ccc(Cl)c(C(F)(F)F)c2)s1` yielded a Papp A→B in [1] of 45 ×10⁻⁶ cm/s. The compound further returned a solubility in series [2] of 22 µM (≈ 6.17 µg/mL). Further, the Papp B→A in [3] is 70 ×10⁻⁶ cm/s.
The AUC(0-t) is the area under the concentration-time curve up to a stated or last time point. High values mean more exposure, low ones less exposure. As usually defined, the Cmax is the peak of the concentration-time curve. As usually defined, the half-life is how long it takes for the measured level to halve. A high value points to slow loss. One may read the logD as the decadic logarithm of the distribution of all forms, ionised or not, between an organic phase and buffer at a given pH. Higher therefore signals a more lipophilic compound. The term Tmax denotes the time at which the peak concentration occurs. In general, AUC(0-inf) refers to total exposure, with the tail of the curve extrapolated. Higher therefore signals high exposure. Consider `Oc1nnc(-c2ccc(Cl)c(C(F)(F)F)c2)o1`, for which, in series [4], the exposure AUC(0-t) at 24 h turned out to be 50400 ng·h/mL. This compound registered a Papp A→B in series [1] of 34 ×10⁻⁶ cm/s. For the same compound, the Cmax in series [5] came to 2990 ng/g; in series [15] it was 16600 ng/mL. Besides, the half-life was 2.3 h in series [6] and 3.7 h in series [7]. The compound also had a solubility in series [2] of 710 µM (≈ 188 µg/mL). In [8], the AUCt amounted to 8870 ng·h/g. In addition, in [9], the AUC was found to be 9910 ng·h/g. In addition, the logD in [10] was determined as 2.6. Also, the Tmax in series [11] was 0.17 h; in [12] it was 0.5 h. Further, in series [13], the Kp uu at 24 h amounted to 0.025. This compound gave a Papp B→A in [3] of 55 ×10⁻⁶ cm/s. In [14], the AUC(0-inf) stood at 63100 ng·h/mL.
